The results in this text go back to patent US8952024B2, “Herbicidal pyrimidone derivatives” (E I du Pont de Nemours and Company, priority 2009, dated 2015).

Format in all cases: in vivo
The test system of assay [1] is winter barley (Hordeum vulgare). Briefly: Test B postemergence plant response. The conditions noted are these: for Barley plant response rating (0 to 100 scale): 0 is no effect. The method, boiled down: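 Visual ratings from 0 (no effect) to 100 (complete control), made against controls 13–15 days after treatment, kept in a greenhouse. Compounds were applied postemergence to potted plants at the 1- to 4-leaf stage (2–18 cm).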

The subject of assay [2] is nightshade (eastern black nightshade, Solanum ptycanthum). Briefly: Test B pre-/postemergence plant response. The note with it: Preemergence; for Nightshade plant response rating: 250 g ai/ha, 0 to 100 scale. In outline:
(§1)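 Plants treated either at seeding (loam/sand soil) or postemergence at 2 to 18 cm height, using a surfactant-containing non-phytotoxic solvent formulation. Evaluation was visual after 13 to 15 days, 0 to 100 scale relative to controls.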

Assay [3] concerns galium (catchweed bedstraw, Galium aparine). Briefly: Test B pre-/postemergence plant response. The note with it: Preemergence. The method, boiled down: as §1
The test system of assay [4] is sunflower (common oilseed sunflower, Helianthus annuus). Nature of the assay: Test B pre-/postemergence plant response. The conditions noted are these: Preemergence; for Sunflower plant response rating: 250 g ai/ha, 0 to 100 scale. In outline:
as §1

[5] abbreviates: Postemergence, 31 g ai/ha, 0 to 100 scale (0 no effect, 100 complete control).
The mark [6] stands for this setting: Postemergence, 62 g ai/ha, scale 0 to 100 (0 no effect, 100 complete control).
Setting [7] is: Postemergence, 125 g ai/ha, scale 0 to 100 (0 no effect, 100 complete control).
[8] abbreviates: Postemergence, 250 g ai/ha, scale 0 to 100 (0 no effect, 100 complete control), 13 to 15 days.
[9] abbreviates: 31 g ai/ha, scale 0 to 100 (0 no effect, 100 complete control).
Setting [10] is: 62 g ai/ha, scale 0 to 100 (0 no effect, 100 complete control).
[11] abbreviates: 125 g ai/ha, scale 0 to 100, 0 no effect, 100 complete control.
Where [12] appears, read: Postemergence, 62 g ai/ha, scale 0 (no effect) to 100 (complete control), 13 to 15 days.
Where [13] appears, read: 31 g ai/ha, postemergence, scale 0 to 100, 0 is no effect, 100 is complete control.
The mark [14] stands for this setting: Postemergence, 125 g ai/ha, visual rating after 13 to 15 days, scale 0 (no effect) to 100 (complete control).
[15] abbreviates: Postemergence, 250 g ai/ha, scale 0 to 100 (0 no effect, 100 complete control).
[16] abbreviates: Postemergence, 125 g ai/ha, scale 0 (no effect) to 100 (complete control), 13 to 15 days.
The mark [17] stands for this setting: 62 g ai/ha, postemergence, 100 is complete control, 13 to 15 days.
The mark [18] stands for this setting: 16 g ai/ha, Postemergence, 0 to 100 scale.

`COc1ccc(-n2c(-c3ccccc3)ncc(C(=O)C3=C(O)CCCC3=O)c2=O)cc1OC` [Compound 218]: the “Plant response rating, Barley” value in assay [1] (setting [5]) came to 30; in assay [1] (setting [6]) it was 30; in assay [1] (setting [7]), 35; in assay [1] (setting [8]), 35. Also, the “Plant response rating, Nightshade” value is 98 in assay [2] (setting [9]), 98 in assay [2] (setting [10]) and 100 in assay [2] (setting [11]). For the same compound, the “Nightshade plant response rating” value in assay [2] is 100. Besides, the entries for the “Plant response rating, Galium” value in assay [3] (setting [9]), in assay [3] (setting [10]) and in assay [3] (setting [11]) were 60, 80 and 95, respectively. The “Galium plant response rating” value in assay [3] (250 g ai/ha, 0 to 100 scale) stood at 100. The “Plant response rating, Sunflower” value in assay [4] (setting [9]) stood at 75; in assay [4] (setting [10]), 80; in assay [4] (setting [11]), 90. For the same compound, the “Sunflower plant response rating” value in assay [4] was determined as 95.
For “5-[(2-hydroxy-6-oxo-1-cyclohexen-1-yl)carbonyl]-2,3-diphenyl-4(3H)-pyrimidinone [Compound 2]”, the “Plant response rating, Barley” value turned out to be 0 in assay [1] (Postemergence, 31 g ai/ha, scale 0 to 100 (0 no effect, 100 complete control)); 0 in assay [1] (setting [12]); 0 in assay [1] (Postemergence, 125 g ai/ha, scale 0 to 100 (0 no effect, 100 complete control), 13 to 15 days). Also, the “Barley plant response rating” value in assay [1] (Postemergence, 250 g ai/ha, scale 0 to 100) was 0. Further, the “Sunflower plant response rating (0 to 100 scale)” value in assay [4] (0 is no effect, 100 is complete control, rated after 13 to 15 days, application rate of this section not shown) was 0.
Consider `Cn1c(-c2ccccc2)ncc(C(=O)C2=C(O)CCCC2=O)c1=O` [Compound 55], for which the “Plant response rating, Barley” value in assay [1] (setting [13]), in assay [1] (setting [12]), in assay [1] (setting [14]) and in assay [1] (setting [15]) was 0 each time. Besides, the “Plant response rating, Nightshade” value in assay [2] (setting [9]) was 60; in assay [2] (setting [10]) it was 98; in assay [2] (setting [11]), 100. The “Plant response rating, Galium” value turned out to be 85 in assay [3] (250 g ai/ha, 0 to 100 scale); 0 in assay [3] (setting [9]); 0 in assay [3] (setting [10]); 20 in assay [3] (setting [11]). For the same compound, the “Plant response rating, Sunflower” value in assay [4] (setting [9]) is 10; in assay [4] (setting [10]) it was 60; in assay [4] (setting [11]), 60.
Consider `CCCCc1ncc(C(=O)C2=C(O)CCCC2=O)c(=O)n1-c1cccc(C)c1` [Compound 63], for which the “Plant response rating, Barley” value in assay [1] (setting [13]), in assay [1] (setting [12]), in assay [1] (setting [14]) and in assay [1] (setting [15]) was 0 throughout. Also, the “Plant response rating, Nightshade” value in assay [2] (setting [9]) is reported as 80; in assay [2] (setting [10]) it was 95; in assay [2] (setting [11]), 98. In addition, the “Plant response rating, Galium” value is 20 in assay [3] (250 g ai/ha, 0 to 100 scale); 0 in assay [3] (setting [9]); 0 in assay [3] (setting [10]); 0 in assay [3] (setting [11]). Also, the entries for the “Plant response rating, Sunflower” value in assay [4] (setting [9]), in assay [4] (setting [10]) and in assay [4] (setting [11]) were 5, 15 and 20, respectively.
`O=C1CCCC(O)=C1C(=O)c1cnc(-c2ccsc2)n(-c2ccccc2)c1=O` [Compound 56]: the “Plant response rating, Barley” value in assay [1] (setting [13]) was found to be 0; in assay [1] (setting [12]), 10; in assay [1] (setting [14]) it was 30. Besides, the “Plant response rating, Nightshade” value in assay [2] (setting [9]) was determined as 85; in assay [2] (setting [10]) it was 98; in assay [2] (setting [11]) it was 98. In addition, the “Plant response rating, Galium” value in assay [3] (250 g ai/ha, 0 to 100 scale) came to 85; in assay [3] (setting [9]) it was 0; in assay [3] (setting [10]) it was 0; in assay [3] (setting [11]), 60. Also, the “Plant response rating, Sunflower” value in assay [4] (setting [9]) turned out to be 0; in assay [4] (setting [10]) it was 60; in assay [4] (setting [11]), 65.
`CCc1ccccc1-n1c(-c2ccccc2)ncc(C(=O)C2=C(O)CCCC2=O)c1=O` [Compound 255]: the “Plant response rating, Barley” value in assay [1] (setting [5]) worked out at 30; in assay [1] (setting [6]) it was 35; in assay [1] (setting [16]), 35; in assay [1] (setting [8]) it was 50. Moreover, the “Plant response rating, Nightshade” value is 75 in assay [2] (setting [9]), 90 in assay [2] (setting [10]) and 100 in assay [2] (setting [11]). Besides, the “Nightshade plant response rating” value in assay [2] worked out at 100. The “Plant response rating, Galium” value in assay [3] (setting [9]) is on record as 0; in assay [3] (setting [10]), 50; in assay [3] (setting [11]) it was 60. Besides, in assay [3] (250 g ai/ha, 0 to 100 scale), the “Galium plant response rating” value is recorded as 100. The figures for the “Plant response rating, Sunflower” value in assay [4] (setting [9]), in assay [4] (setting [10]) and in assay [4] (setting [11]) were 45, 60 and 75, respectively. For the same compound, the “Sunflower plant response rating” value in assay [4] is recorded as 90.
With `Cc1ccccc1-c1ncc(C(=O)C2=C(O)CCCC2=O)c(=O)n1-c1ccccc1` [Compound 82], the “Plant response rating, Barley” value is 0 in assay [1] (setting [13]), 0 in assay [1] (setting [14]) and 5 in assay [1] (setting [15]). Besides, the “Barley plant response rating (0 to 100 scale)” value in assay [1] (setting [17]) was determined as 0.
Regarding `O=C1CCCC(O)=C1C(=O)c1cnc(-c2cc(F)cc(F)c2)n(C2CCCCC2)c1=O` [Compound 181], in assay [1] (setting [17]), the “Barley plant response rating (0 to 100 scale)” value is given as 40. Besides, the “Plant response rating, Barley” value in assay [1] (setting [5]) amounted to 5; in assay [1] (setting [7]) it was 50; in assay [1] (setting [8]), 55.
In the case of `O=C1CCCC(O)=C1C(=O)c1cnc(-c2ccccc2)n(C2CCCC2)c1=O` [Compound 131], the “Plant response rating, Barley” value in assay [1] (setting [18]), in assay [1] (setting [5]) and in assay [1] (setting [7]) was 0 in each case. Further, the “Barley plant response rating (0 to 100 scale)” value in assay [1] (setting [17]) came out at 0.
For `O=C1CCCC(O)=C1C(=O)c1cnc(-c2ccccc2)n(C2CCSCC2)c1=O` [Compound 164], in assay [1] (setting [17]), the “Barley plant response rating (0 to 100 scale)” value came to 5. The “Plant response rating, Barley” value was found to be 5 in assay [1] (setting [5]), 30 in assay [1] (setting [7]) and 35 in assay [1] (setting [8]).
In the case of `CCCCn1c(-c2cccc(Cl)c2)ncc(C(=O)C2=C(O)CCCC2=O)c1=O` [Compound 146], the “Barley plant response rating (0 to 100 scale)” value in assay [1] (setting [17]) was determined as 0. Further, the entries for the “Plant response rating, Barley” value in assay [1] (setting [5]), in assay [1] (setting [7]) and in assay [1] (setting [8]) were 0, 15 and 30, respectively.
As to `COCCn1c(-c2cccc(C)c2)ncc(C(=O)C2=C(O)CCCC2=O)c1=O` [Compound 117], the “Plant response rating, Barley” value in assay [1] (setting [13]), in assay [1] (setting [7]) and in assay [1] (setting [15]) was 0 in each case. Moreover, in assay [1] (setting [17]), the “Barley plant response rating (0 to 100 scale)” value came out at 0.
Turning to `CC1(C)CC(=O)C(C(=O)c2cnc(-c3ccccc3)n(-c3ccccc3)c2=O)=C(O)C1` [Compound 225], the “Plant response rating, Barley” value in assay [1] (setting [18]) is given as 5; in assay [1] (setting [5]), 20; in assay [1] (setting [6]) it was 35; in assay [1] (setting [7]) it was 40.
With `CCCCn1c(-c2cccc(F)c2)ncc(C(=O)C2=C(O)C3CCC(C3)C2=O)c1=O` (stereo not shown) [Compound 237], the “Plant response rating, Barley” value in assay [1] (setting [5]) turned out to be 5; in assay [1] (setting [6]), 15; in assay [1] (setting [16]) it was 40; in assay [1] (setting [8]), 40.
`CCCn1c(-c2cc(C)cc(C)c2)ncc(C(=O)C2=C(O)CCCC2=O)c1=O` [Compound 156]: in assay [1] (setting [17]), the “Barley plant response rating (0 to 100 scale)” value was found to be 45. In addition, the “Plant response rating, Barley” value was 30 in assay [1] (setting [5]), 60 in assay [1] (setting [7]) and 85 in assay [1] (setting [8]).
In the case of `CCCn1c(-c2ccsc2)ncc(C(=O)C2=C(O)C3CCC(C3)C2=O)c1=O` (stereo not shown) [Compound 227], the “Plant response rating, Barley” value in assay [1] (setting [5]) is on record as 0; in assay [1] (setting [6]) it was 5; in assay [1] (setting [7]) it was 5; in assay [1] (setting [8]), 30.
